# ChEMBL document CHEMBL1201862, “PubChem BioAssay data set” (2004)
#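 Growth conditions: 96-well plates. Treatment: test compound, 48 hours, 5 concentrations. Analysis: linear interpolation between bracketing concentrations; unreached endpoints set to highest concentration. Here, GI50 denotes the concentration required for 50% inhibition of growth.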 Calls of active or inactive are those of the source. Rule as the data show it: active = GI50 up to about 1.1 µM and inactive = higher.
# Experiments:
# Test in all cases: NCI tumour cell line growth inhibition, 48 h
# OVCAR-3 = system: OVCAR-3
# HCC 2998 = system: HCC 2998
# OVCAR-5 = system: OVCAR-5
# SF-539 = system: SF-539
# SK-MEL-28 = system: SK-MEL-28
# NCI-H460 = system: NCI-H460
# HL-60 = system: HL-60
# M14 = system: M14
# SW-620 = system: SW-620
# UO-31 = system: UO-31
# A549 = system: A549
# SF-295 = system: SF-295
# NCI-H226 = system: NCI-H226
# TK-10 = system: TK-10
# SNB-75 = system: SNB-75
# HCT-116 = system: HCT-116
# UACC-257 = system: UACC-257
# SF-268 = system: SF-268
# MDA-MB-231 = system: MDA-MB-231
# SK-MEL-2 = system: SK-MEL-2
# MOLT-4 = system: MOLT-4
# CAKI-1 = system: CAKI-1
# SK-OV-3 = system: SK-OV-3
# NCI-H23 = system: NCI-H23
# COLO 205 = system: COLO 205
# NCI/ADR-RES = system: NCI/ADR-RES
# HCT-15 = system: HCT-15
# KM12 = system: KM12
# IGROV-1 = system: IGROV-1
# SK-MEL-5 = system: SK-MEL-5
# 786-0 = system: 786-0
# SN12C = system: SN12C
# HT-29 = system: HT-29
# U-251 = system: U-251
# OVCAR-4 = system: OVCAR-4
# RXF 393 = system: RXF 393
# MDA-MB-435 = system: MDA-MB-435
# BT-549 = system: BT-549
# ACHN = system: ACHN
# HOP-92 = system: HOP-92
# T47D = system: T47D
# HOP-62 = system: HOP-62
# SNB-19 = system: SNB-19
# DU-145 = system: DU-145
# LOX IMVI = system: LOX IMVI
# MDA-N = system: MDA-N
# EKVX = system: EKVX
# A498 = system: A498
# OVCAR-8 = system: OVCAR-8
# CCRF-CEM = system: CCRF-CEM
# SR = system: SR
# PC-3 = system: PC-3
# K562 = system: K562
# UACC-62 = system: UACC-62
# NCI-H522 = system: NCI-H522
# MCF7 = system: MCF7
# Malme-3M = system: Malme-3M
compound,measurement,setting,value
CC(=O)/C(=C/n1c(=S)[nH]c2ccccc21)C(=O)Nc1ccccc1C,GI50,OVCAR-3,> 100 µM (inactive)
same,GI50,HCC 2998,> 100 µM (inactive)
same,GI50,OVCAR-5,> 100 µM (inactive)
same,GI50,SF-539,> 100 µM (inactive)
same,GI50,SK-MEL-28,> 100 µM (inactive)
same,GI50,NCI-H460,> 100 µM (inactive)
same,GI50,HL-60,> 100 µM (inactive)
same,GI50,M14,> 100 µM (inactive)
same,GI50,SW-620,> 100 µM (inactive)
same,GI50,UO-31,> 100 µM (inactive)
same,GI50,A549,> 100 µM (inactive)
same,GI50,SF-295,> 100 µM (inactive)
same,GI50,NCI-H226,> 100 µM (inactive)
same,GI50,TK-10,> 100 µM (inactive)
same,GI50,SNB-75,> 100 µM (inactive)
same,GI50,HCT-116,> 100 µM (inactive)
same,GI50,UACC-257,> 100 µM (inactive)
same,GI50,SF-268,> 100 µM (inactive)
same,GI50,MDA-MB-231,> 100 µM (inactive)
same,GI50,SK-MEL-2,> 100 µM (inactive)
same,GI50,MOLT-4,> 100 µM (inactive)
same,GI50,CAKI-1,> 100 µM (inactive)
same,GI50,SK-OV-3,> 100 µM (inactive)
same,GI50,NCI-H23,> 100 µM (inactive)
same,GI50,COLO 205,> 100 µM (inactive)
same,GI50,NCI/ADR-RES,> 100 µM (inactive)
same,GI50,HCT-15,> 100 µM
same,GI50,KM12,> 100 µM (inactive)
same,GI50,IGROV-1,> 100 µM (inactive)
same,GI50,SK-MEL-5,> 100 µM (inactive)
same,GI50,786-0,> 100 µM (inactive)
same,GI50,SN12C,> 100 µM (inactive)
same,GI50,HT-29,> 100 µM (inactive)
same,GI50,U-251,> 100 µM (inactive)
same,GI50,OVCAR-4,> 100 µM (inactive)
same,GI50,RXF 393,> 100 µM (inactive)
same,GI50,MDA-MB-435,> 100 µM (inactive)
same,GI50,BT-549,> 100 µM (inactive)
same,GI50,ACHN,> 100 µM (inactive)
same,GI50,HOP-92,> 100 µM (inactive)
same,GI50,T47D,> 100 µM (inactive)
same,GI50,HOP-62,> 100 µM (inactive)
same,GI50,SNB-19,> 100 µM (inactive)
same,GI50,DU-145,> 100 µM (inactive)
same,GI50,LOX IMVI,> 100 µM (inactive)
same,GI50,MDA-N,> 100 µM (inactive)
same,GI50,EKVX,> 100 µM (inactive)
same,GI50,A498,> 100 µM (inactive)
same,GI50,OVCAR-8,> 100 µM (inactive)
O=c1c(O)c(-c2ccccc2)oc2c(CP(=O)(O)O)cccc12,GI50,OVCAR-3,> 100 µM (inactive)
same,GI50,HCC 2998,> 100 µM (inactive)
same,GI50,OVCAR-5,> 100 µM (inactive)
same,GI50,SF-539,> 100 µM (inactive)
same,GI50,NCI-H460,> 100 µM (inactive)
same,GI50,CCRF-CEM,> 100 µM (inactive)
same,GI50,M14,> 100 µM (inactive)
same,GI50,A549,> 100 µM (inactive)
same,GI50,SF-295,> 100 µM (inactive)
same,GI50,TK-10,> 100 µM (inactive)
same,GI50,HCT-116,> 100 µM (inactive)
same,GI50,UACC-257,> 100 µM (inactive)
same,GI50,MDA-MB-231,> 100 µM (inactive)
same,GI50,SK-MEL-2,> 100 µM (inactive)
same,GI50,MOLT-4,> 100 µM (inactive)
same,GI50,CAKI-1,> 100 µM (inactive)
same,GI50,SK-OV-3,> 100 µM (inactive)
same,GI50,NCI-H23,> 100 µM (inactive)
same,GI50,SR,> 100 µM (inactive)
same,GI50,COLO 205,> 100 µM (inactive)
same,GI50,HCT-15,> 100 µM
same,GI50,PC-3,> 100 µM (inactive)
same,GI50,IGROV-1,> 100 µM (inactive)
same,GI50,SK-MEL-5,> 100 µM (inactive)
same,GI50,K562,> 100 µM (inactive)
same,GI50,786-0,> 100 µM (inactive)
same,GI50,UACC-62,> 100 µM (inactive)
same,GI50,SN12C,> 100 µM (inactive)
same,GI50,U-251,> 100 µM (inactive)
same,GI50,OVCAR-4,> 100 µM (inactive)
same,GI50,RXF 393,> 100 µM (inactive)
same,GI50,MDA-MB-435,> 100 µM (inactive)
same,GI50,BT-549,> 100 µM (inactive)
same,GI50,T47D,> 100 µM (inactive)
same,GI50,HOP-62,8.55 µM (inactive)
same,GI50,NCI-H522,> 100 µM (inactive)
same,GI50,MCF7,> 100 µM (inactive)
same,GI50,DU-145,> 100 µM (inactive)
same,GI50,MDA-N,> 100 µM (inactive)
same,GI50,EKVX,> 100 µM (inactive)
same,GI50,A498,> 100 µM (inactive)
same,GI50,Malme-3M,> 100 µM (inactive)
[N-]=[N+]=CC(=O)CCC(=O)N(c1ccccc1)c1ccccc1,GI50,OVCAR-3,> 10 µM (inactive)
same,GI50,OVCAR-5,> 10 µM (inactive)
same,GI50,SF-539,> 10 µM (inactive)
same,GI50,SK-MEL-28,> 10 µM (inactive)
same,GI50,NCI-H460,> 10 µM (inactive)
same,GI50,HL-60,> 10 µM (inactive)
same,GI50,CCRF-CEM,> 10 µM (inactive)
same,GI50,M14,> 10 µM (inactive)
same,GI50,SW-620,> 10 µM (inactive)
same,GI50,UO-31,> 10 µM (inactive)
same,GI50,A549,> 10 µM (inactive)
same,GI50,SF-295,> 10 µM (inactive)
same,GI50,NCI-H226,> 10 µM (inactive)
same,GI50,TK-10,> 10 µM (inactive)
same,GI50,SNB-75,> 10 µM (inactive)
same,GI50,HCT-116,> 10 µM (inactive)
same,GI50,UACC-257,> 10 µM (inactive)
same,GI50,SF-268,> 10 µM (inactive)
same,GI50,MDA-MB-231,> 10 µM (inactive)
same,GI50,SK-MEL-2,6.98 µM (inactive)
same,GI50,MOLT-4,> 10 µM (inactive)
same,GI50,SK-OV-3,> 10 µM (inactive)
same,GI50,NCI-H23,> 10 µM (inactive)
same,GI50,SR,> 10 µM (inactive)
same,GI50,HCT-15,> 10 µM
same,GI50,KM12,> 10 µM (inactive)
same,GI50,PC-3,> 10 µM (inactive)
same,GI50,IGROV-1,> 10 µM (inactive)
same,GI50,SK-MEL-5,> 10 µM (inactive)
same,GI50,K562,> 10 µM (inactive)
same,GI50,786-0,> 10 µM (inactive)
same,GI50,SN12C,> 10 µM (inactive)
same,GI50,HT-29,> 10 µM (inactive)
same,GI50,U-251,> 10 µM (inactive)
same,GI50,RXF 393,> 10 µM (inactive)
same,GI50,MDA-MB-435,> 10 µM (inactive)
same,GI50,BT-549,> 10 µM (inactive)
same,GI50,ACHN,> 10 µM (inactive)
same,GI50,HOP-92,> 10 µM (inactive)
same,GI50,T47D,> 10 µM (inactive)
same,GI50,HOP-62,> 10 µM (inactive)
same,GI50,SNB-19,> 10 µM (inactive)
same,GI50,MCF7,> 10 µM (inactive)
same,GI50,DU-145,> 10 µM (inactive)
same,GI50,LOX IMVI,> 10 µM (inactive)
same,GI50,MDA-N,> 10 µM (inactive)
same,GI50,EKVX,> 10 µM (inactive)
same,GI50,A498,> 10 µM (inactive)
same,GI50,Malme-3M,> 10 µM (inactive)
same,GI50,OVCAR-8,> 10 µM (inactive)
